These results are taken from ChEMBL document CHEMBL2016532, “Novel potent dual inhibitors of CK2 and Pim kinases with antiproliferative activity against cancer cells” (Bioorg Med Chem Lett, 2012).

Assay [1] has as its target Casein kinase II alpha/beta (Homo sapiens, UniProt P68400). Type of assay: protein-complex assay.
In another assay the test system is BXPC-3. In words: Antiproliferative activity against human BxPC3 cells after 48 hrs by alamar blue assay. It counts as functional, cell-based. The note with it: BXPC-3, 48 h.
The subject of the next assay is K562. In words: Antiproliferative activity against human K562 cells after 48 hrs by alamar blue assay. Type of assay: functional, cell-based. The conditions noted are these: K562, 48 h.
Assay [2] concerns MDA-MB-453 (Homo sapiens). In words: Antiproliferative activity against human MDA-MB-453 cells after 48 hrs by alamar blue assay. The conditions noted are these: MDA-MB-453, 48 h. In general terms: Alamar Blue is a resazurin reagent that responds to reducing activity.
For assay [3], the target named is Serine/threonine-protein kinase pim-2 (Homo sapiens, UniProt Q9P1W9). In words: Inhibition of human recombinant Pim2 using RSRHSSYPAGT as substrate and 5 uM ATP by radiometric assay.
In assay [4] the target is T1, Receptor-type tyrosine-protein kinase FLT3 (Homo sapiens, UniProt P36888).
T1 sequence (P36888 whole entry): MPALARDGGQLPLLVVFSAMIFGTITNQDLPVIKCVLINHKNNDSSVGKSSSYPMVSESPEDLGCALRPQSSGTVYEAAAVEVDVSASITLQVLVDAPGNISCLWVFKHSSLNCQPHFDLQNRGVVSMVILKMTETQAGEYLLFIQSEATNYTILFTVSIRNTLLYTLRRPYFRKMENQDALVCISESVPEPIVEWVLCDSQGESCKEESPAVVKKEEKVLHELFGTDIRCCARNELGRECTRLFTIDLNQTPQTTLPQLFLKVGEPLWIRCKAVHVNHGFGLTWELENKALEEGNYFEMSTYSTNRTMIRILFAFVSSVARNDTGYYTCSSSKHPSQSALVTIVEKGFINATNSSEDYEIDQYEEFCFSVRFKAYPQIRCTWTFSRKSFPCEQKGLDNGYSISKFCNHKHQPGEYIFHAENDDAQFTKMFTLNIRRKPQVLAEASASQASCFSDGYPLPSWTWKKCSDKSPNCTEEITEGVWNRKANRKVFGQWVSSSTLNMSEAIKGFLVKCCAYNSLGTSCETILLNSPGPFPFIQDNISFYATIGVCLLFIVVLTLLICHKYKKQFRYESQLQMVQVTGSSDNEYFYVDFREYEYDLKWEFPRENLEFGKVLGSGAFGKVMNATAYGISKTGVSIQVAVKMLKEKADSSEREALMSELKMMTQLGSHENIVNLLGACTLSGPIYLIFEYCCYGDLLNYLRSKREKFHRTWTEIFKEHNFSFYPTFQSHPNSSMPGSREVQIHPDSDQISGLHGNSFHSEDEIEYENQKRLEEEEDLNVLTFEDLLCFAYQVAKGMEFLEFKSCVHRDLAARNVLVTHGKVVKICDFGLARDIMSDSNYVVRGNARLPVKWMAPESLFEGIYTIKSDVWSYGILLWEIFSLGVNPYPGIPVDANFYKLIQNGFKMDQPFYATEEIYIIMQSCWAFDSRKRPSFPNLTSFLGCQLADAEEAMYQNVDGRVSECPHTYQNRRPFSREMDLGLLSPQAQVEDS
In words: Inhibition of Flt3.

Assay [5] concerns the target Serine/threonine-protein kinase pim-1 (Homo sapiens, UniProt P11309). In words: Inhibition of human recombinant Pim1 using RSRHSSYPAGT as substrate and 30 uM ATP by radiometric assay.
Assay [6] can be described thus: Antiproliferative activity against human SUM149PT cells after 48 hrs by alamar blue assay. It counts as functional, cell-based.
Another assay concerns MV4-11. In words: Antiproliferative activity against human MV411 cells after 48 hrs by alamar blue assay. Type of assay: functional, cell-based. The note with it: MV4-11, 48 h.

Serine/threonine-protein kinase pim-2, sequence (Q9P1W9 whole entry): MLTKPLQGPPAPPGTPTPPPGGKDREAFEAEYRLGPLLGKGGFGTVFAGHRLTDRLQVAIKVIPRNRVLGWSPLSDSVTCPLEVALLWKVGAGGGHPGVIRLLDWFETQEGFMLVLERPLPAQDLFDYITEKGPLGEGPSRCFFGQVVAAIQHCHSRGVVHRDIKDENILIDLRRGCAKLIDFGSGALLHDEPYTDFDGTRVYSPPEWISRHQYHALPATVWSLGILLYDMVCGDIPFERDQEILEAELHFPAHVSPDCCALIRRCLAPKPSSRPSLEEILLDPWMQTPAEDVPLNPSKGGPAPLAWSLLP
Serine/threonine-protein kinase pim-1, sequence (P11309 whole entry): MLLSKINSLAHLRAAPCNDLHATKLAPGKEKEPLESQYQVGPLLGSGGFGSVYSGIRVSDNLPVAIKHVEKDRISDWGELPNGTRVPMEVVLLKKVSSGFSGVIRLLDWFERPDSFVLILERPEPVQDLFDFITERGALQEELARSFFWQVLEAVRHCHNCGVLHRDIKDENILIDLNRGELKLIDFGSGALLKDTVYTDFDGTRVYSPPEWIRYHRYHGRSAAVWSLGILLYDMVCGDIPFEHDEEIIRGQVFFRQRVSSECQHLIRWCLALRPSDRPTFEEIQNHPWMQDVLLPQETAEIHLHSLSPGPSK
Casein kinase II alpha/beta, sequence (P67870 whole entry): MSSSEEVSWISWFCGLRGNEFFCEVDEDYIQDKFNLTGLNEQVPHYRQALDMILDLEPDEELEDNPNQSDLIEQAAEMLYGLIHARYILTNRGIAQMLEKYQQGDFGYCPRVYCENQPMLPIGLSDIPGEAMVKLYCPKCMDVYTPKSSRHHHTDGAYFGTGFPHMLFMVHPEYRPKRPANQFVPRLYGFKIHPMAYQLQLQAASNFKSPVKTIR
Casein kinase II alpha/beta, sequence (P68400 whole entry): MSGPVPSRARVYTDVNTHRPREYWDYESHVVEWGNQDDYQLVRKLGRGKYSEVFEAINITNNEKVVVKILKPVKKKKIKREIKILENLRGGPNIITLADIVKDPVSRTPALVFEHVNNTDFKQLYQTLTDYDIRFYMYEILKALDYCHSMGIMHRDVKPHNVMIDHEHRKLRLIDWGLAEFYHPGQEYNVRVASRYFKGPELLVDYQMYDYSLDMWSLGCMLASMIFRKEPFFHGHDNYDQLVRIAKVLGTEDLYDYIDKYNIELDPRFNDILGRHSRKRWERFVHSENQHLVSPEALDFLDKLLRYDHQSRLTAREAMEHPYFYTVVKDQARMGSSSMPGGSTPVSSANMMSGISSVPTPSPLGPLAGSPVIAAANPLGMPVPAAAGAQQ

As a reminder, the IC50 is the concentration that gives 50% inhibition. For orientation: EC50 means the concentration at which the effect is half-maximal. Read a high EC50 as lower potency in that assay. `Clc1ccccc1Nc1nc2c(-c3nnc[nH]3)cccc2c2sccc12`: the IC50 is 9 nM in assay [1], 2 nM in assay [3], more than 10000 nM in [4] and 3 nM in assay [5]. Also, the EC50 with BXPC-3 worked out at 11700 nM; with K562, 3600 nM; in assay [2], 2600 nM; in [6], 4400 nM; in the assay with MV4-11 it was 500 nM.
As for `Clc1ccccc1Nc1nc2c(-c3nnc[nH]3)cccc2c2cscc12`, the IC50 is 20 nM in [1], 8 nM in assay [3], more than 10000 nM in [4] and 7 nM in assay [5]. Moreover, the concentration for a half-maximal effect (EC50) with BXPC-3 is 4500 nM; in the assay on K562 it was more than 10000 nM; in [2], 4900 nM; in [6], 2600 nM; in the assay on MV4-11 it was 600 nM.
Turning to `Clc1ccccc1Nc1nc2c(-c3nnc[nH]3)cccc2c2ccsc12`, the IC50 in assay [1] is 21 nM; in assay [3], 6 nM; in assay [4], more than 10000 nM; in assay [5], 4 nM. In addition, the EC50 is 16100 nM in the assay on BXPC-3; more than 10000 nM in the assay on K562; 1300 nM in assay [2]; 2600 nM in [6]; 3200 nM with MV4-11.
`Clc1ccccc1Nc1nc2c(-c3nnc[nH]3)cccc2n2cccc12`: the IC50 in assay [1] was 89 nM; in assay [3], 41 nM; in assay [4], more than 10000 nM; in assay [5] it was 12 nM.
On to `CNC(=O)c1cccc2c1nc(Nc1ccccc1Cl)c1ccsc12`, for which the IC50 worked out at 48 nM in assay [1], 28 nM in [3], 5300 nM in [4] and 5 nM in assay [5].
